Key:
[1] = tested on: Pseudomonas aeruginosa 01; assay: Modified radial diffusion assay (zones of growth inhibition); assay type: cell-based; conditions: pH 5.5 versus pH 7.5
Method: (§1) An agar radial diffusion assay has been used as described herein to determine antimicrobial activities of proteins against microbial pathogens in vitro. One million CFU will be mixed into 10 ml (i.e., 1×10^5 CFU/ml) of melted 1% agarose (in 10 mM NaHPO4 and cooled to 42° C.) containing minimal nutrient and adjusted to either pH 5.5 or pH 7.2. The agar is solidified in culture dishes, and sample wells are formed. Peptides at various concentrations are dissolved in 10 μl of 0.01% acetic acid buffer (pH 5.5 or 7.2), loaded into individual wells, and incubated at 37° C. for three hours. The plate is then overlayed with 1% agarose containing nutrients and incubated (37° C., for at least 24 hours). Peptides purified by RP-HPLC lacking antimicrobial activity are tested in parallel as controls. Zones of inhibition are measured to quantify antimicrobial activity. This assay will not distinguish between microbicidal and microbiostatic actions, but is highly sensitive to peptides with one or both functions.
(§2) The following assay is designed to measure the relative antimicrobial activity of peptides by determining zones of growth inhibition.
(§3) The top eleven prioritized target sequences identified in Example I (see Table 21) were synthesized by solid-phase chain extension synthesis using conventional techniques. Each synthetic peptide was purified by RP-HPLC, and authenticated for purity and correct sequence by mass spectroscopy. Stock concentrations of the synthetic peptides were prepared at 1 mg/mL in 0.01% acetic acid and adjusted to pH 7.2. Synthetic peptides were assessed for antimicrobial efficacy, spectra, and conditional optima (pH 5.5 or 7.5) using the following modified radial diffusion assay, as detailed in Yount and Yeaman, PNAS […] (2004).
(§4) Molecular grade agarose (1.0%) in 10 mM NaH2PO4H2O was prepared, pH adjusted to 7.5 or 5.5, and autoclaved for 15 minutes at 121° C., then held in a waterbath set at 48° C. until used. Mueller Hinton II overlay agarose was prepared by adding molecular grade agarose to Mueller Hinton II Broth at a final concentration of 1.0%, pH adjusted to 7.5 or 5.5, autoclaved for 10 minutes at 121° C., and then held at 48° C. until used.
(§5) Trypticase Soy Broth (TSB) (10 mL) we inoculated with an overnight growth of the test organism and incubated three to six hours until the organism reached log phase. The cells were collected by centrifugation, washed in PBS, then 0.01% acetic acid adjusted to pH 7.2. The pellet was resuspended in TSB and standardized to a 0.5 McFarland turbidity standard. A 10 μl aliquot of the inoculum is added to 10 mL of the pH-adjusted 1.0% molecular grade agarose cooled to 48° C. resulting in a final inoculum concentration of 5×10^5 CFU/mL. The suspension is poured into a 15×100 mm Petri dish and allowed to solidify.
(§6) After solidification had occurred, five 4 mm diameter wells were bored into the agarose. The central well was used as the acetic acid control while 10 μl of peptide stock solution was added to each of the other wells resulting in a final concentration of 10 μg peptide/well. The plates were incubated upright for three hours at 37° C., then overlaid with 10 mL of Mueller Hinton II agarose. After the overlay solidified, the plates were inverted and incubated overnight at 37° C.
(§7) The synthetic peptides identified in Table 22 were assayed for antimicrobial activity against known pathogenic microorganisms. These pathogenic microorganisms included five species of bacteria (Staphylococcus aureus, Escherichia coli, Salmonella typhimurium, Pseudomonas aeruginosa and Bacillus subtilis) and one species of fungi (Candida albicans) (see Table 23). Zones of growth inhibition were measured and were grouped as complete and/or partial growth zones for the assayed microorganism. Zones were considered complete clearance when there was no visible growth (i.e. completely clear or free of growth). […]

[2] = tested on: Salmonella typhimurium 14028; assay: as above; assay type: cell-based; conditions: pH 5.5 versus pH 7.5
Method: as §1, §2, §3, §4, §5, §6, §7

Escherichia coli ML-35 = assay: as above; assay type: cell-based; conditions: pH 5.5 versus pH 7.5
Method: as §1, §2, §3, §4, §5, §6, §7

[3] = tested on: Bacillus subtilis ATCC 6633; assay: as above; assay type: cell-based; conditions: pH 5.5 versus pH 7.5
Method: as §1, §2, §3, §4, §5, §6, §7

[4] = tested on: Acinetobacter baumannii isolates; assay: Radial diffusion assay, Example III; assay type: cell-based; conditions: pH 5.5 vs. pH 7.5
Method: as §3, §4, §5, §6
(§8) The synthetic peptides identified in Table 22 were assayed for antimicrobial activity against known pathogenic microorganisms. These pathogenic microorganisms included five species of bacteria (Staphylococcus aureus, Escherichia coli, Salmonella typhimurium, Pseudomonas aeruginosa and Bacillus subtilis) and one species of fungi (Candida albicans) (see Table 23). Zones of growth inhibition were measured and were grouped as complete and/or partial growth zones for the assayed microorganism. Zones were considered complete clearance when there was no visible growth (i.e. completely clear or free of growth). Zones were considered partial clearance when growth was impeded or partially cleared (i.e. reduction in microbial density as compared to adjacent confluent growth). The larger the zone size, the greater the antimicrobial activity of the test peptide. The lack of a zone is an indication of no antimicrobial activity of the test peptide against the target organism under the conditions tested.
(§9) Further to the methods disclosed in Example II, utilizing the same antimicrobial assay above, the antimicrobial activity of peptides Hol-III-4 (SEQ ID NO: 268) and Ncl-VIII-6 (SEQ ID NO: 152 was determined by identifying zones of growth inhibition.
(§10) Hol-III-4 and Ncl-VIII-6 peptides were assayed for antimicrobial activity against a panel of drug-resistant Gram-negative bacterial pathogens, specifically Pseudomonas aeruginosa, and various Acinetobacter spp. strains. […] The RP-1 peptide is well known in the art to have antimicrobial activity, as illustrated in Yeaman et al., Antimicrobial Agents and Chemotherapy, 46(12):3883-3891 (2002). The 6W-RP-1 peptide is a 6-Trp variant of RP-1, which also has antimicrobial activity, as illustrated in Kilelee et al, Antimicrobial Agents and Chemotherapy 54(10):4476-4479 (2010).

[5] = tested on: Acinetobacter spp. strains (drug-resistant); assay: Radial diffusion assay, Example III; assay type: cell-based; conditions: pH 5.5 and pH 7.5; all strains tested
Method: as §3, §4, §5, §6, §8, §9, §10

[6] = tested on: Pseudomonas aeruginosa strains (drug-resistant); assay: Radial diffusion assay, Example III; assay type: cell-based; conditions: pH 5.5 and pH 7.5; all strains tested
Method: as §3, §4, §5, §6, §8, §9, §10

[7] = known in the art; cited from earlier work

Row | Substance | effect of acidic pH on antimicrobial activity [1] | effect of acidic pH on antimicrobial activity [2] | effect of acidic pH on antimicrobial activity (Escherichia coli ML-35) | effect of acidic pH on antimicrobial activity [3] | pH dependence of antimicrobial activity [4] | antimicrobial activity (zone of inhibition) [5] | antimicrobial activity (zone of inhibition) [6] | antimicrobial activity [7]
1 | H2N-IRLVSKYGKSKGIAYI-CONH2 (H-IRLVSKYGKSKGIAYI-NH2) [Ncl-VIII-6, designed from Nucleolin] | did not appear to affect the activity | did not appear to affect the activity | did not appear to affect the activity | did not appear to affect the activity | pH dependent | significant antimicrobial activity | significant antimicrobial activity | 
2 | H-ALFYFASKLYLKALYTKV-NH2 [BaxP-I-18] | did not appear to affect the activity | did not appear to affect the activity | did not appear to affect the activity | did not appear to affect the activity |  |  |  | 
3 | N-AALYKKKIIKKLLES-C [PMP-2, C-terminal helix of the consensus molecule cPMP] |  |  |  |  |  |  |  | known to have antimicrobial activity
4 | H2N-SIGSLIKRFAYKKAGV-CONH2 (H-SIGSLIKRFAYKKAGV-NH2) [Hol-III-4, designed from Holin protein] | did not appear to affect the activity | did not appear to affect the activity | did not appear to affect the activity | did not appear to affect the activity | pH dependent | significant antimicrobial activity | significant antimicrobial activity | 

Reference: US9562083B2, “Peptides and methods for inducing cell death” (Los Angeles Biomedical Research Institute at Harbor-UCLA …, priority 2010, dated 2017)
